According to patent US20090325202A1, “Methods for Developing and Assessing Therapeutic Agents” (priority 2006, published 2009):
Where “and” joins values, the source holds several entries; their conditions need not be identical. Equal entries are not always repeated. Entries after “also recorded” stand apart in the source; their conditions may differ.

How the values were obtained:
[1] = tested on: primary human pancreatic cancer xenograft tumors; assay: Tumor growth (RTG) in xenograft mouse models of primary human pancreatic cancer; format: in vivo, athymic (nu+/nu+) mice
Source text: Four-week-old female athymic (nu+/nu+) mice were purchased from Harlan (Harlan Laboratories, Washington, D.C.). The research protocol was approved by the Johns Hopkins University Animal Care and Use Committee and animals were maintained in accordance to guidelines of the American Association of Laboratory Animal Care. Briefly, frozen pancreatic xenografts in first passage in mice, after being obtained from surgical specimens of patients undergoing pancreatic resection for adenocarcinoma at the Johns Hopkins Hospital were re-implanted subcutaneously in groups of 5 mice for each patient, with 2 small pieces per mouse (F2 generation). Tumors were allowed to grow to a size of 1.5 cm at which point they were harvested, divided into small ˜3×3×3 mm pieces, and transplanted to another 18-22 mice, with two tumors per mouse. Tumors from this second mouse-to-mouse passage were allowed to grow until reaching −200 mm^3, at which time mice were randomized in the following three treatment groups, with 6 mice in each group: control (vehicle), erlotinib (50 mg/kg/day i.p.), and temsirolimus (20 mg/kg days 1-5 i.p.). Mice were monitored daily for signs of toxicity and were weighed three times per week. Tumor size was evaluated three times per week by caliper measurements using the following formula: tumor volume=[length×width^2]/2 as previously reported (19). Relative tumor growth (RTG) was calculated by tumor growth of treated mice divided by tumor growth of control mice (T/C)×100. Experiments were terminated on day 28. Tumor response was defined as sensitive, when RTG was less than 50% on day 28.

ERK1/2 [2] = assay: Ex vivo FNAB drug sensitivity assay, ERK1/2 phosphorylation by Western blot; format: cell-based, human
Procedure: Tumor cells were collected by FNAB from the xenograft animals before the start of treatment using a sterile 25G short needle. Tumor samples were immediately transferred into 10 ml sterile prewarmed complete RPMI-1640 culture medium containing 10% FBS, penicillin (200 μg/ml), and streptomycin (200 μg/ml). Cells were incubated with 0.04% trypan blue (Sigma) dissolved in PBS (9.1 mM Na2HPO4, 1.7 mM NaH2PO4, and 150 mM NaCl, pH 7.4). The viable (membrane-intact) and dead cells were then counted using Neubauer hemocytometer and the total viable cell count was used to calculate final working volumes. Approximately 25,000 viable tumor cells were seeded into each well of a 6-well polypropylene microplate. Cells were treated in duplicates with vehicle (control), erlotinib (5 μM) or temsirolimus (1 μM) in a humidified 5% CO2 incubator at 37° C. for 6 hours. No fibroblast and endothelial cell growth was observed. Following treatment, non-adherent and adherent cells (only a few, collected by scraping) were pooled together and centrifuged at 500×g for 5 min at 4° C. After washing with PBS, cells were lysed in 100 μL of ice-cold lysis buffer (50 mM Tris-HCl, 0.25M NaCl, 0.1% (v/v) Triton X-100, 1 mM EDTA, 50 mM NaF, and 0.1 mM Na3VO4, pH 7.4) containing protease and phosphatase inhibitors (Roche Molecular Biochemicals) and analyzed by Western blot.
Protein concentrations obtained from FNAB samples were quantified before each experiment. Protein extracts (15 μg) were electrophoresed on a 10% (w/v) SDS-polyacrylamide gel. After electrotransfer to Immobilon-P membranes (Millipore), membranes were blocked at room temperature using SuperBlock (Pierce) for one hour. The primary antibodies were diluted at 1:1000 in 1:10 dilution of SuperBlock solution and the membranes were incubated with primary antibodies overnight at 4° C. The antibodies tested were phospho-ERK1/2 (Cell signal #9101), phospho-S6 Ribosomal Protein (Cell Signaling Technology, Beverly, Mass.) and total ERK1/2 (Cell Signaling Technology, Beverly, Mass.) and total S6 Ribosomal Protein (Cell Signaling Technology, Beverly, Mass.). The next day, the membranes were washed and incubated for 1 h at room temperature with horseradish peroxidase (HRP)-conjugated secondary antibodies, rabbit IgG-HRP (Santa Cruz Biotechnology), or mouse IgG-HRP (Santa Cruz Biotechnology) at a final dilution of 1:3000. Antibody binding was visualized using enhanced chemiluminescence (SuperSignal West Pico, Pierce) and autoradiography.
To test if tumor cells obtained by FNAB can be used in the ex vivo assays to predict tumor response in vivo, 25,000 viable cancer cells, as determined by trypan blue dye exclusion, were treated with erlotinib or temsirolimus for six hours, after which signal pathway inhibition was analyzed by Western blot. Under these cell culture conditions no fibroblast and endothelial cell growth was detected (data not shown).
To determine whether standard clinical FNAB specimens provide adequately cellular tumor samples to perform ex vivo prediction assays, adenocarcinoma cells were collected by ultrasound or computer tomography-guided FNAB technique from pancreatic cancer patients during routine diagnostic procedures. Tumor cells were isolated by centrifugation from the needle rinse suspensions and treated with vehicle (control), erlotinib, or temsirolimus ex vivo for six hours.

ERK1/2 [3] = assay: Phospho-/total ERK1/2 ELISA in EGF-stimulated T-47D cell smears; format: cell-based, human; details: T-47D cells, AG1478 0.5 uM, PD98059 20 uM
Procedure: T47D cells were maintained in Dulbecco's modified Eagle's medium (Life Technologies, Inc.) supplemented with 10% fetal calf serum and antibiotics (Life Technologies, Inc.). Prior to EGF (Sigma) stimulation, cells were starved for 24 h in serum-free medium.
(§1) Total cell lysates were obtained from either cells cultured in vitro or from tumor FNAB samples. Protein extracts were resolved by 4-15% SDS-PAGE and probed with Rabbit anti-EGFR, anti-phospbo-EGFR, anti-ERK1 and anti-phospho-ERK antibodies obtained from New England Biolabs (Beverly, Mass.). Immunoreactive proteins were visualized by enhanced chemiluminescence (Amersham International, United Kingdom). Total and phospho-ERK1/2 proteins were quantified by sandwich [LISA kits (BioSource International, Camarillo, Calif., USA) as described in the manufacturer's protocols. The reaction was read at 450 nm in an ELISA plate reader.
Western blot analysis of protein samples is a conventional method for phosphoprotein analysis. However, Western blot analysis is limited in throughput and quantitative precision, and also requires large sample amounts. […] Therefore, it was tested if quantitative ELISA assays can be applied to cytologic samples to increase the assay sensitivity to measure the expression levels and activation status of specific signaling pathways. […]

ERK1/2 [4] = assay: HuCCT-1 xenograft tumor FNAB phospho-/total ERK1/2 ELISA; format: in vivo, human
Procedure: (§2) Four to 6-week-old female athymic (nu+/nu+) mice were purchased from Harlan (Harlan Laboratories, Washington, D.C.). The research protocol was approved by the Johns Hopkins University Animal Care Committee and animals were maintained in accordance with the guidelines of the American Association of Laboratory Animal Care. […] Mice were monitored daily for signs of toxicity and were weighed three times per week. Tumor size was evaluated three times per week by caliper measurements using the following formula: tumor volume=[length×width^2]/2. Tumor growth inhibition was calculated by tumor volume of treated mice divided by tumor volume of control mice. Experiments were terminated on day 14.
as §1, with “Protein extracts were resolved by 4-15% SDS-PAGE and probed with Rabbit anti-EGFR, anti-phospbo-EGFR, anti-ERK1 and anti-phospho-ERK antibodies obtained from New England Biolabs (Beverly, Mass.).” left out
Western blot analysis of protein samples is a conventional method for phosphoprotein analysis, but is limited in throughput, quantitative precision and requires large sample amounts. ELISA assays offer alternatives to Western blot with higher throughput and increased sensitivity. […] For this purpose the tumor FNAB samples, which have been analyzed on Western blot above (FIG. 16A), were used to assess the expression and phosphorylation of ERK1/2 proteins by the total and phospho-specific ERK1/2 ELISA assays, respectively.
The amounts of phosphorylated ERK1/2 were normalized for the total contents of these proteins in each sample group and therapy-mediated changes in their phosphorylation status were quantified.

ERK1/2 [5] = assay: HuCCT-1 xenograft tumor FNAB Western blot, ERK1/2 activity; format: in vivo, human
Procedure: as §2
Fine needle aspirates were obtained with a 25G needle and 10 ml syringe, passing the needle through the tumor 10 times with application of 1-2 ml suction The aspirated material was expressed onto clear glass slides and smeared. All smears were allowed to air dry and then stained with Diff-Quik stain (Baxter Healthcare, Miami, Fla.). Five to ten AD/DQ-stained cytological smears were prepared from each tumor sample. The cellular composition of each aspirate was assessed by cytopathologists.
as §1, with “Protein extracts were resolved by 4-15% SDS-PAGE and probed with Rabbit anti-EGFR, anti-phospbo-EGFR, anti-ERK1 and anti-phospho-ERK antibodies obtained from New England Biolabs (Beverly, Mass.).” left out
Next, whether FNAB samples obtained from tumor tissue at the early stage of therapy can be used to predict tumor response was examined. […] Expression and phosphorylation levels of ERK 1/2 were analyzed on Western blot by using extracts prepared from AD/DQ-stained FNAB samples.

HuCCT-1 tumors = assay: HuCCT-1 xenograft tumor growth; format: in vivo, athymic (nu+/nu+) mice; details: single agents: gefitinib 150 mg/Kg i.p. days 1-5 and 8-12, CI-1040 150 mg/Kg twice a day oral days 1-14
Procedure: as §2
To explore the feasibility of implementing this method in in vivo studies, mouse xenografts were next employed to test whether FNAB material obtained from tumor tissue can be utilized to monitor and predict therapy response in vivo. For this purpose HuCCT-1 cholangiocarcinoma cells were used to create a xenograft mouse model of human cholangiocarcinoma. […] Tumor volumes were measured and compared with tumors from animals that received drug vehicle alone.

## C#Cc1cccc(Nc2ncnc3cc(OCCOC)c(OCCOC)cc23)c1 [erlotinib]
[1]; remaining seven tumors (all but A198), erlotinib 50 mg/kg/day i.p., day 28
  RTG: greater than 50%
[1]; tumor A198
  tumor response: sensitive (Tumor response was defined as sensitive, when RTG was less than 50% on day 28)
[1]; tumor A265
  tumor response: resistant (greater than 50% RTG and were defined as resistant)
ERK1/2 [2]; all resistant tumors of the xenograft panel, erlotinib 5 μM, 6 hours
  ERK1/2 activation ex vivo: failed to inhibit ERK1/2 activation
ERK1/2 [2]; cancer cells from pancreatic cancer patient 1, six hours
  ERK1/2 phosphorylation ex vivo: dramatically blocked ERK1/2 phosphorylation
ERK1/2 [2]; cells from resistant tumor A265, erlotinib 5 μM, 6 hours
  phosphorylation of ERK1/2 ex vivo: failed to inhibit ERK1/2 phosphorylation
ERK1/2 [2]; cells from tumor A198, erlotinib 5 μM, 6 hours
  phosphorylation of ERK1/2 ex vivo: dramatic inhibition; also recorded: did show inhibition of ERK1/2; also recorded: inhibited ERK1/2 activation
ERK1/2 [2]; tumor cells of pancreatic cancer patient 2 and 3, six hours
  ERK1/2 activity ex vivo: did not effectively block ERK1/2 activity

## COc1cccc(-c2cc(=O)c3ccccc3o2)c1N [PD98059]
ERK1/2 [3]
  inhibition of EGF-induced ERK1/2 phosphorylation (phospho-ELISA normalized for total ERK1/2): 50% and 60%

## O=C(NOCC1CC1)c1ccc(F)c(F)c1Nc1ccc(I)cc1Cl [CI-1040]
ERK1/2 [4]; HuCCT-1 tumor FNAB samples of treated animals
  phosphorylation levels of ERK1/2 by phospho-ERK1/2 ELISA (raw data): neither gefitinib nor CI-1040 treatment alone caused any significant change
ERK1/2 [4]; HuCCT-1 tumor FNAB, CI-1040 alone
  decrease of ERK1/2 phosphorylation (normalized for total ERK1/2): 19%
ERK1/2 [5]; HuCCT-1 tumor FNAB samples of treated mice, gefitinib, CI-1040 alone or combined
  ERK1/2 activity (phospho-ERK1/2 immunoblot): only a slight inhibition in ERK1/2 activity
ERK1/2 [5]; combination: as early as 6 h after first administration, sustained for two weeks, single agents: 6 h or 5 d
  ERK1/2 activity, serial FNAB sampling: neither of these agents alone caused inhibition
HuCCT-1 tumors
  decrease in tumor volume: 11%
